Earlier results on one compound are cited in US4756910A, “Adriamycin-entrapping liposome preparation” (priority 1985, dated 1988).

For the compound `COc1cccc2c1C(=O)c1c(O)c3c(c(O)c1C2=O)C[C@@](O)(C(=O)CO)C[C@@H]3O[C@H]1C[C@H](N)[C@H](O)[C@H](C)O1` [Free adriamycin, Adriamycin], the “Cardiac toxicity (in words)” value (background statement) is “accumulative cardiac toxicity”. Under “in vivo, iv”, the “Disappearance from the blood (in words)” value is listed as “rapidly disappears from the blood after intravenous administration”.
